# Results reported in patent US9307757B2, “Monoalkyl sulfosuccinates in pesticide formulations and applications” (AKZO NOBEL CHEMICALS INTERNATIONAL B.V., priority 2009, dated 2016).
# Columns and labels:
# [1] = Stability and uniformity of high-load glufosinate-ammonium formulation (FIG. 1); assay type: physicochemical; conditions: 1:1 mixture glufosinate-ammonium active and ACAR 7053 (C8 ether sulfate adjuvant), hydrotrope present, FIG. 1C
# Description: The unique structure of the monoalkyl sulfosuccinates of structure (I) renders them the capability of compatibilizing or stabilizing the highly concentrated components in the pesticide/herbicide formulation. Such capability is best illustrated by the performance of monoalkylsulfosuccinates, particularly of sodium monobutyl sulfosuccinate in the high load glufosinate-ammonium formulations. In these formulations, the active loading is at the highest (280 g/l). As the active content increases, the adjuvant content increases and the water content is reduced. Consequently, there is not enough water to solubilize both the herbicide active and the adjuvant. Without the action of a hydrotrope, the two components would separate.
# Without hydrotrope, the formulation is a hazy mixture when freshly mixed (FIG. 1A) that separates into two layers upon standing (FIG. 1B).
# [2] = Designed experiment: percentage of separation of aqueous mixtures of pesticide, adjuvant and hydrotrope (FIG. 2 ternary diagram); assay type: physicochemical; conditions: pesticide formulation containing AGAR 7053 as adjuvant
# Description: The performance of the sodium monobutyl sulfosuccinate as hydrotrope for pesticide formulation containing the AGAR 7053 as adjuvant was also confirmed by the results of a designed experiment.
# The numbers associated with the small colored bar in the upper left hand corner of the Figure give the percentage of separation in the samples. The colors in the bar are related to the colored regions in the ternary diagram. As the regions in the graph go from red to blue the percentage of separation goes to zero.
smiles,measurement,setting,value
CCCCOC(=O)C(CC(=O)[O-])S(=O)(=O)O.[Na+] (stereo not drawn) [sodium monobutyl sulfosuccinate],appearance of formulation when freshly mixed,[1],clear
same,stability of formulation after prolonged standing,[1],retains that clarity and uniformity
same,performance as hydrotrope (separation of samples),[2],performed as a hydrotrope over a wide range of concentrations
